In patent publication US20160159861A1, “APJ Receptor Compounds” (priority 2013, published 2016):
Where two headings read alike, the source gives them in different places. Peptide text beside a SMILES is read from it.

Assays:
Assay type in all cases: cell-based
[1] = target: T1, human APJ receptor (hAPJ) (Homo sapiens, UniProt P35414); assay: HTRF cAMP assay: inhibition of NKH477-stimulated cAMP in HEK cells stably expressing hAPJ; conditions: for Emax: HEK293, read-out: % IA, bound stated; for % IA (cAMP inhibition, hAPJ HEK): intrinsic activity; for Ranking: composite class of EC50 (hAPJ), % IA and % histamine or formal (+) charge; for inhibition of NKH477-stimulated increase in cAMP, dose dependent: concentration response curves, FIGS. 1 and 2, HEK cells stably expressing APJ
T1 construct: expressed in transfected cells
T1 sequence (P35414 1-380): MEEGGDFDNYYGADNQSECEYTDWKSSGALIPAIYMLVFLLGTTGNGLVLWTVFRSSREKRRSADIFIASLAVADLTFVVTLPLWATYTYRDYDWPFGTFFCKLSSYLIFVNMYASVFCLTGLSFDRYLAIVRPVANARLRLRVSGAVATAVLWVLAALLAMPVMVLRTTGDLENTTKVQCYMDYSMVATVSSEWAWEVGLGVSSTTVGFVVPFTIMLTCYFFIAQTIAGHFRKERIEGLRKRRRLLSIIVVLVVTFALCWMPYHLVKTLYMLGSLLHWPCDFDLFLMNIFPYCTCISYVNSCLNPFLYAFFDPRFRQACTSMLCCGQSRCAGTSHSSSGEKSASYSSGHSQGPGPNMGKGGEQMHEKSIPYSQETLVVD
In short: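 HEK cells stably expressing hAPJ, induced with 1 nG/mL doxycycline and seeded overnight at 40 k/well. cAMP read by HTRF competitive immunoassay using cryptate-labeled anti-cAMP antibody and d2-labeled cAMP.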

rat peritoneal cells = assay: Ex vivo histamine release assay in rat peritoneal cells (vs. Compound 48/80)
In short: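 Resident peritoneal cells were lavaged from male Sprague Dawley rats and kept in HBSS/20 mM HEPES/0.2% BSA at 25,000 cells/well. They were exposed for 30 min at room temperature to compound at 3 points (100, 10, 1 μM DMSO stocks, 1% DMSO final). Released histamine was measured by HTRF and normalised to total histamine after Triton lysis. Compound 48/80 was the reference.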

CXCR4 receptor = CXCR4 receptor (Homo sapiens, UniProt P61073); assay: Activity at CXCR4 receptor (selectivity, Gi-coupled GPCR); conditions: FIGS. 6A-6C, selectivity vs. hAPJ
Chain of CXCR4 receptor (P61073 whole entry): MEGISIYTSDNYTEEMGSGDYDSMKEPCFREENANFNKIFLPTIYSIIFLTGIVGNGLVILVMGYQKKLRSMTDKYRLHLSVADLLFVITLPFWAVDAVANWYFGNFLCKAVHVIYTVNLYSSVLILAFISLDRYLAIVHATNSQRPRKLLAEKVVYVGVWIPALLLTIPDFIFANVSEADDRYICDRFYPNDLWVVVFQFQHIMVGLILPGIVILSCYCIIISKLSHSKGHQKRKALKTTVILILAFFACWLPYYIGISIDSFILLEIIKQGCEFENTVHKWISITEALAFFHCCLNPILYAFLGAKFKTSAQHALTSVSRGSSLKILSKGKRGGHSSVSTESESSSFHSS

APJ receptor = target: T2, APJ receptor (Homo sapiens, UniProt P35414); assay: Cellul'erk ERK phosphorylation assay in APJ-TREX cells; parameters: expressed in transfected cells; host or cells: Human TRex (APJ-TREX) cells, doxycycline-inducible expression; conditions: relative to max pyr-apelin-13 activity at 100 nM; 3 or 0.3 μM compound, 5 minutes
T2 sequence (P35414 1-380): T1 sequence (P35414 1-380)
Method: Experiments were performed to test activation of the ERK and p38 pathways using the Cellul'erk and the Phospho-p38 MAPK (Thr180/Tyr182) assay kits (Cisbio). APJ-TREX cells were optimized for signaling (pre-serum starved overnight with low FBS serum (2% FBS media) with 1 ng/ml doxycyclin (for induction of APJ receptor expression), 50,000 cells, 5 minutes agonist activation for ERK activity). Cells were pretreated with 3 or 0.3 μM pepducin compound for 5 minutes and the reaction was stopped by lysis buffer. Lysates are then transferred to the assay plate for the detection of phosphorylated ERK or p38 by HTRF reagents.

[2] = HTRF cAMP Assay, per data of Table 6
[3] = HTRF cAMP Assay, per data of Table 6, read-out: EC50 (hAPJ), inhibition of cAMP production, bound stated
[4] = Table 6, hAPJ HEK cells, NKH477-stimulated cAMP, read-out: EC50 (cAMP inhibition, hAPJ HEK)

CCCCCCCCCCCCCCCC(=O)N[C@@H](CC(=O)O)C(=O)N[C@H](C(=O)N[C@@H](Cc1ccccc1)C(=O)N[C@@H](CCC(N)=O)C(=O)N[C@@H](CO)C(=O)N[C@@H](CO)C(=O)N[C@@H](CCC(=O)O)C(=O)N[C@H](CCCCN)C(=O)N[C@@H](CCCNC(=N)N)C(=O)N[C@@H](CCCNC(=N)N)C(=O)N[C@@H](CO)C(=O)N[C@@H](C)C(=O)N[C@@H](CC(=O)O)C(=O)N[C@@H](CCC(N)=O)C(=O)N[C@@H](Cc1ccccc1)C(=O)N[C@H](C(N)=O)[C@@H](C)CC)C(C)C [Compound 12] (HELM PEPTIDE1{[CCCCCCCCCCCCCCCC(=O)[*:2]].D.V.F.Q.S.S.E.[dK].R.R.S.A.D.Q.F.I.[am]}$$$$V2.0)
Emax [1, 2]: ≥ 80% | EC50 [1, 3]: ≤ 25 nM | EC50 [1, 4]: 12 nM | % IA (cAMP inhibition, hAPJ HEK) ([1]; Table 6, hAPJ HEK cells): 97% | Ranking [1]: ***** (EC50≦25 nM (hAPJ), % IA≧80% and either % histamine≦35% or formal (+) charge≦1) | inhibition of NKH477-stimulated increase in cAMP, dose dependent [1]: inhibited | Histamine (% vs. 48/80) (rat peritoneal cells): 9% | activity at the CXCR4 receptor (CXCR4 receptor): lack of dose-responsive activity | Average % Activity (ERK agonist activity) (APJ receptor): 51.8%

CCCCCCCCCCCCCCCC(=O)N[C@@H](CC(=O)O)C(=O)N[C@H](C(=O)N[C@@H](Cc1ccccc1)C(=O)N[C@@H](CCCNC(=N)N)C(=O)N[C@@H](CO)C(=O)N[C@@H](CO)C(=O)N[C@@H](CCC(=O)O)C(=O)N[C@H](CCCCN)C(=O)N[C@@H](CCCNC(=N)N)C(=O)N[C@@H](CCCNC(=N)N)C(=O)N[C@@H](CO)C(=O)N[C@@H](C)C(=O)N[C@@H](CC(=O)O)C(=O)N[C@@H](CCC(N)=O)C(=O)N[C@@H](Cc1ccccc1)C(=O)N[C@H](C(N)=O)[C@@H](C)CC)C(C)C [Compound 13] (HELM PEPTIDE1{[CCCCCCCCCCCCCCCC(=O)[*:2]].D.V.F.R.S.S.E.[dK].R.R.S.A.D.Q.F.I.[am]}$$$$V2.0)
Emax [1, 2]: ≥ 80% | EC50 [1, 3]: ≤ 25 nM | EC50 [1, 4]: 6 nM | % IA (cAMP inhibition, hAPJ HEK) ([1]; Table 6, hAPJ HEK cells): 96% | Ranking [1]: ***** (EC50≦25 nM (hAPJ), % IA≧80% and either % histamine≦35% or formal (+) charge≦1) | inhibition of NKH477-stimulated increase in cAMP, dose dependent [1]: inhibited | Histamine (% vs. 48/80) (rat peritoneal cells): 17% | activity at the CXCR4 receptor (CXCR4 receptor): lack of dose-responsive activity | Average % Activity (ERK agonist activity) (APJ receptor): 44.0%
